Laboratory results from patent US9914914B2, “Polymerase capable of producing non-DNA nucleotide polymers” (Medical Research Council, priority 2012, dated 2018).
[HNA-N] = hexitol nucleic acid (N: the base)

What was measured:
CD30 = biological target: T1, CD30 (Homo sapiens, UniProt P28908); assay: Fluorescence polarisation affinity of txNA aptamers; type: binding
T1 construct: selections were carried out against the extracellular domains of both CD30 and L1-CAM expressed as N-terminal Fc chimeras
T1 sequence (P28908 19-385 limits assumed): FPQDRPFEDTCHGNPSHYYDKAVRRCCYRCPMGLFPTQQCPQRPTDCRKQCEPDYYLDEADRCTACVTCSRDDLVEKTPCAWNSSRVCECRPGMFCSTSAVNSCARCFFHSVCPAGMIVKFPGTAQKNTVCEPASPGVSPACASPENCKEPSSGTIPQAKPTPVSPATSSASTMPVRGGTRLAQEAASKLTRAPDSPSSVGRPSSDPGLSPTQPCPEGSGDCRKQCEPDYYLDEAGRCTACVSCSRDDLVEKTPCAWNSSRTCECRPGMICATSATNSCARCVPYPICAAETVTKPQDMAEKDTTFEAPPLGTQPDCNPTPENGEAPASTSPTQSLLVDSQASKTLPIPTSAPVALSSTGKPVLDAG
Procedure: In this example, selections were carried out against the extracellular domains of both CD30 and L1-CAM expressed as N-terminal Fc chimeras. Briefly, for each round libraries were annealed in 1×HBSSTT (Hanks' Balanced Salt Solution with 5 mM each TRIS pH 7.4 and 8.3 and 0.05% Tween-20) for 5 min 85° C. and cooled to 4° C. at 0.1° C./sec, exposed to either protein AG or streptavidin-coated paramagnetic beads (see below), filtered to remove the beads and then added to recombinant protein in 1×HBSST. These mixtures were incubated at room temperature on a rotator to allow aptamers to bind to the recombinant proteins in solution and binders were recovered via protein AG or streptavidin-coated paramagnetic beds. Rounds 1, 2 and 5 were carried out using native protein and Protein AG Magnetic Beads (Pierce). All other rounds were carried out using protein biotinylated with NHS-LC-LC-biotin (Pierce) and recovered from the binding incubation using NanoLink Streptavidin Magnetic beads (SoluLink). The beads were washed in 1×HBSSTT for 2 h-16 h at room temperature using a Thermo KingFisher and aptamers eluted from the proteins bound to the beads using 30 mM NaOH. Negative selections were carried out against free Fc from round 5 onwards. […]
Aptamers selected against a) CD30 and b) L1-CAM were tested in fluorescence polarisation (FP) and affinities calculated as above (and/or Pinheiro et al (2012)). […]

[1] = test system: sTAR (HIV trans-activating response RNA motif); assay: HNA aptamer affinity by SPR, BLI and ELONA titration; type: binding; conditions: read-out: dissociation constant (KD)
Procedure: ELONA (Aptamer-ELISA) was carried out as described (56) with minor modifications. For screening and characterization, ssRNA-HNA chimeras were prepared as described above (13.) (using fitcRNAfd (Table S5)) and binding assayed by immunodetection of the FITC-tag on the bound aptamer. […] Bound antibody was detected using a colorimetric substrate as described above (see PAA, 5) […]
For anti-TAR aptamers, 1000RU sTAR was captured (or, as a reference flow cell, 1000RU scrambledTAR-1) before blocking with excess free biotin. Anti-TAR aptamers were injected for 150 s at a series of concentrations (125 nM, 62.5 nM, 31.3 nM, 15.6 nM, 7.8 nM and 3.9 nM) and dissociation monitored for 600 s, in buffer R (20 mM NaOAc, 140 mM KOAc, 3 mM Mg(OAc)2, 0.1% (v/v) Tween20). […]
To obtain optimal fits, SPR data was fitted to double-exponential model using KaleidaGraph (Synergy Software, Pennsylvania, USA) and Prism (GraphPad Software Inc., California, USA) (57). The rate constants of dissociation were measured by fitting dissociation data at time t (Rdissoc) using a double-exponential function: Rdissoc=Rolexp^−(k^off1^t)+Ro2exp^−(k^off2^t)+RI (1) where koff is the dissociation rate constant, Ro is maximum change in resonance for each phase, RI is the bulk resonance change. […]

With “CD30_13: txNA aptamer selected against CD30, SEQ ID NO:20 (TAGATGTGGTAGAAGTCGTCATTTGGCGAGAAAGCTCAGTCTCAGG; XNA aptamer, chemistry of this clone not given here)” the “binding to CD30” value (CD30) was “bind CD30 tightly and with good affinity”.

Substance “T5-S8-7: anti-TAR HNA aptamer, SEQ ID NO:16 (AGGTAGTGCTGTTCGTTCATCTCAAATCTAGTTCGCTATCCAGTTGGC; all [HNA-N], backbone and methylation of C not given here)” has a Kd [1] of 28 to 67 nM.
